Measured values: ChEMBL document CHEMBL1201862, “PubChem BioAssay data set” (2004)
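Five concentrations, 48 hours, 96-well plates. GI50 = concentration required for 50% inhibition of growth.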 Calls of active or inactive are those of the source. Rule as the data show it: active = GI50 up to about 1.1 µM and inactive = higher.

Key:
Experiment in all cases: NCI-60 cell line screen, 48 h
HOP-62 = test system: HOP-62
KM12 = test system: KM12
SNB-75 = test system: SNB-75
OVCAR-3 = test system: OVCAR-3
IGROV-1 = test system: IGROV-1
NCI-H23 = test system: NCI-H23
LXFL 529 = test system: LXFL 529
786-0 = test system: 786-0
HCC 2998 = test system: HCC 2998
Malme-3M = test system: Malme-3M
OVCAR-4 = test system: OVCAR-4
SF-539 = test system: SF-539
HL-60 = test system: HL-60
HCT-116 = test system: HCT-116
SNB-78 = test system: SNB-78
CAKI-1 = test system: CAKI-1
SF-295 = test system: SF-295
SK-MEL-2 = test system: SK-MEL-2
XF498 = test system: XF498
SF-268 = test system: SF-268
SNB-19 = test system: SNB-19
SR = test system: SR
TK-10 = test system: TK-10
A549 = test system: A549
CCRF-CEM = test system: CCRF-CEM
HT-29 = test system: HT-29
NCI-H460 = test system: NCI-H460
RXF 631 = test system: RXF 631
SK-MEL-28 = test system: SK-MEL-28
EKVX = test system: EKVX
U-251 = test system: U-251
DMS-114 = test system: DMS-114
OVCAR-8 = test system: OVCAR-8
NCI-H522 = test system: NCI-H522
A498 = test system: A498
UACC-62 = test system: UACC-62
M19-MEL = test system: M19-MEL
ACHN = test system: ACHN
HOP-92 = test system: HOP-92
K562 = test system: K562
M14 = test system: M14
SK-OV-3 = test system: SK-OV-3
SN12C = test system: SN12C
RXF 393 = test system: RXF 393
DMS-273 = test system: DMS-273
SK-MEL-5 = test system: SK-MEL-5
UACC-257 = test system: UACC-257
UO-31 = test system: UO-31
MOLT-4 = test system: MOLT-4
NCI-H226 = test system: NCI-H226
DLD-1 = test system: DLD-1
OVCAR-5 = test system: OVCAR-5
SW-620 = test system: SW-620
RPMI-8226 = test system: RPMI-8226
HCT-15 = test system: HCT-15
COLO 205 = test system: COLO 205
KM-20L2 = test system: KM-20L2
HOP-18 = test system: HOP-18
LOX IMVI = test system: LOX IMVI

C[C@]12CC=CC(=O)[C@@]1(C)CCC(=O)C2
GI50 (HOP-62): > 100 µM (inactive)
GI50 (KM12): > 100 µM (inactive)
GI50 (SNB-75): > 100 µM (inactive)
GI50 (OVCAR-3): > 100 µM (inactive)
GI50 (IGROV-1): > 100 µM (inactive)
GI50 (NCI-H23): > 100 µM (inactive)
GI50 (LXFL 529): > 100 µM (inactive)
GI50 (786-0): > 100 µM (inactive)
GI50 (HCC 2998): > 100 µM (inactive)
GI50 (Malme-3M): > 100 µM (inactive)
GI50 (OVCAR-4): > 100 µM (inactive)
GI50 (SF-539): > 100 µM (inactive)
GI50 (HL-60): > 100 µM (inactive)
GI50 (HCT-116): > 100 µM (inactive)
GI50 (SNB-78): > 100 µM (inactive)
GI50 (CAKI-1): > 100 µM (inactive)
GI50 (SF-295): > 100 µM (inactive)
GI50 (SK-MEL-2): > 100 µM (inactive)
GI50 (XF498): 75.7 µM (inactive)
GI50 (SF-268): > 100 µM (inactive)
GI50 (SNB-19): > 100 µM (inactive)
GI50 (SR): > 100 µM (inactive)
GI50 (TK-10): > 100 µM (inactive)
GI50 (A549): > 100 µM (inactive)
GI50 (CCRF-CEM): > 100 µM (inactive)
GI50 (HT-29): > 100 µM (inactive)
GI50 (NCI-H460): > 100 µM (inactive)
GI50 (RXF 631): > 100 µM (inactive)
GI50 (SK-MEL-28): > 100 µM (inactive)
GI50 (EKVX): > 100 µM (inactive)
GI50 (U-251): > 100 µM (inactive)
GI50 (DMS-114): > 100 µM (inactive)
GI50 (OVCAR-8): > 100 µM (inactive)
GI50 (NCI-H522): > 100 µM (inactive)
GI50 (A498): > 100 µM (inactive)
GI50 (UACC-62): > 100 µM (inactive)
GI50 (M19-MEL): > 100 µM (inactive)
GI50 (ACHN): > 100 µM (inactive)
GI50 (HOP-92): > 100 µM (inactive)
GI50 (K562): > 100 µM (inactive)
GI50 (M14): > 100 µM (inactive)
GI50 (SK-OV-3): > 100 µM (inactive)
GI50 (SN12C): > 100 µM (inactive)
GI50 (RXF 393): > 100 µM (inactive)
GI50 (DMS-273): > 100 µM (inactive)
GI50 (SK-MEL-5): > 100 µM (inactive)
GI50 (UACC-257): > 100 µM (inactive)
GI50 (UO-31): > 100 µM (inactive)
GI50 (MOLT-4): > 100 µM (inactive)
GI50 (NCI-H226): > 100 µM (inactive)
GI50 (DLD-1): > 100 µM (inactive)
GI50 (OVCAR-5): > 100 µM (inactive)
GI50 (SW-620): > 100 µM (inactive)

Nc1ccc(CCN2CCN(c3cccc(C(F)(F)F)c3)CC2)cc1
GI50 (HOP-62): > 100 µM (inactive)
GI50 (KM12): > 100 µM (inactive)
GI50 (SNB-75): > 100 µM (inactive)
GI50 (OVCAR-3): 91.4 µM (inactive)
GI50 (IGROV-1): > 100 µM (inactive)
GI50 (NCI-H23): > 100 µM (inactive)
GI50 (LXFL 529): > 100 µM (inactive)
GI50 (786-0): 84.3 µM (inactive)
GI50 (HCC 2998): 17.3 µM (inactive)
GI50 (RPMI-8226): 45.2 µM (inactive)
GI50 (Malme-3M): > 100 µM (inactive)
GI50 (SF-539): > 100 µM (inactive)
GI50 (HL-60): 9.51 µM (inactive)
GI50 (HCT-116): > 100 µM (inactive)
GI50 (CAKI-1): > 100 µM (inactive)
GI50 (SF-295): 97.5 µM (inactive)
GI50 (XF498): > 100 µM (inactive)
GI50 (HCT-15): > 100 µM
GI50 (SF-268): > 100 µM (inactive)
GI50 (COLO 205): > 100 µM (inactive)
GI50 (SNB-19): > 100 µM (inactive)
GI50 (SR): 58.5 µM (inactive)
GI50 (TK-10): > 100 µM (inactive)
GI50 (A549): > 100 µM (inactive)
GI50 (CCRF-CEM): 5.07 µM (inactive)
GI50 (HT-29): 70 µM (inactive)
GI50 (NCI-H460): > 100 µM (inactive)
GI50 (RXF 631): 56.5 µM (inactive)
GI50 (SK-MEL-28): > 100 µM (inactive)
GI50 (EKVX): 55.5 µM (inactive)
GI50 (U-251): 91.2 µM (inactive)
GI50 (DMS-114): 26.4 µM (inactive)
GI50 (OVCAR-8): > 100 µM (inactive)
GI50 (NCI-H522): 14.3 µM (inactive)
GI50 (A498): 80.9 µM (inactive)
GI50 (UACC-62): > 100 µM (inactive)
GI50 (M19-MEL): > 100 µM (inactive)
GI50 (KM-20L2): > 100 µM (inactive)
GI50 (ACHN): > 100 µM (inactive)
GI50 (HOP-92): 54.8 µM (inactive)
GI50 (K562): 70.1 µM (inactive)
GI50 (M14): 82.6 µM (inactive)
GI50 (SK-OV-3): > 100 µM (inactive)
GI50 (SN12C): > 100 µM (inactive)
GI50 (RXF 393): 89.5 µM (inactive)
GI50 (SK-MEL-5): 55.2 µM (inactive)
GI50 (UACC-257): 47 µM (inactive)
GI50 (UO-31): 5.74 µM (inactive)
GI50 (MOLT-4): 4.38 µM (inactive)
GI50 (HOP-18): > 100 µM (inactive)
GI50 (NCI-H226): 91.4 µM (inactive)
GI50 (DLD-1): 97.1 µM (inactive)
GI50 (OVCAR-5): > 100 µM (inactive)
GI50 (LOX IMVI): > 100 µM (inactive)
